Measurements as given in ChEMBL document CHEMBL1141117, “Unambiguous synthesis and prophylactic antimalarial activities of imidazolidinedione derivatives” (J Med Chem, 2005).
In brackets after ≈: the same amount, converted by molar mass.

Tests used:
[1] = test system: Plasmodium yoelii; assay: Prophylactic activity in infected mouse at 5 mg/kg peroral administration, expressed as no of organisms survived; Total organisms= 5; conditions: route oral
[2] = test system: Plasmodium yoelii; assay: Prophylactic activity in infected mouse at 10 mg/kg peroral administration, expressed as no of organisms survived; Total organisms= 5; conditions: route oral
[3] = test system: Plasmodium yoelii; assay: Prophylactic activity in infected mouse at 20 mg/kg peroral administration, expressed as no of organisms survived; Total organisms= 5; conditions: route oral
[4] = test system: Plasmodium yoelii; assay: Prophylactic activity in infected mouse at 40 mg/kg peroral administration, expressed as no of organisms survived; Total organisms= 5; conditions: route oral
[5] = test system: Plasmodium yoelii; assay: Prophylactic activity in infected mouse at 80 mg/kg peroral administration, expressed as no of organisms survived; Total organisms= 5; conditions: route oral
[6] = test system: Plasmodium yoelii; assay: In vitro antimalarial activity dosed at 1 mg/kg against exoerythrocytic Plasmodium yoelii in mice (Mus musculus) hepatocytes; conditions: Hepatocyte
[7] = test system: Plasmodium yoelii; assay: In vitro antimalarial activity dosed at 10 mg/kg against exoerythrocytic Plasmodium yoelii in mice (Mus musculus) hepatocytes; conditions: Hepatocyte
[8] = test system: Plasmodium yoelii; assay: Prophylactic activity in infected mouse at 160 mg/kg peroral administration, expressed as no of organisms survived; Toxicity death
[9] = test system: Plasmodium yoelii; assay: Prophylactic activity in infected mouse at 2.5 mg/kg peroral administration, expressed as no of organisms survived; Total organisms= 5; conditions: route oral
[10] = test system: Plasmodium yoelii; assay: Prophylactic activity in infected mouse at 160 mg/kg peroral administration, expressed as no of organisms survived; Total organisms= 5; conditions: route oral
[11] = test system: Plasmodium yoelii; assay: Prophylactic activity in infected mouse at 160 mg/kg peroral administration, expressed as no of organisms survived; Not dosed
[12] = test system: Plasmodium falciparum; assay: (§1) In vitro antimalarial activity for Plasmodium falciparum D6; format: functional, organism-based
[13] = test system: Plasmodium falciparum; assay: (§2) In vitro antimalarial activity for Plasmodium falciparum W2; format: functional, organism-based
[14] = test system: Plasmodium falciparum; assay: (§3) In vitro antimalarial activity for Plasmodium falciparum TM91C235; format: functional, organism-based
[15] = test system: Plasmodium falciparum; assay: as §1; format: functional
[16] = test system: Plasmodium falciparum; assay: as §2; format: functional
[17] = test system: Plasmodium falciparum; assay: as §3; format: functional
[18] = test system: Plasmodium yoelii; assay: Prophylactic activity in infected mouse at 1.23 mg/kg peroral administration, expressed as no of organisms survived; Total organisms= 5; conditions: route oral
[19] = test system: Plasmodium yoelii; assay: Prophylactic activity in infected mouse at 1.25 mg/kg peroral administration, expressed as no of organisms survived; Total organisms= 5; conditions: route oral

`CCCCCCOC(=O)N/C(=N/C(C)C)NC1=NC(=O)C(=O)N1c1ccc(Cl)c(Cl)c1` showed an Activity [1] of 2, an Activity [2] of 2 and an Activity [3] of 4. For the same compound, the Activity [4] was 3 and the Activity [5] was 5.

In the case of `COc1cc(C)c2c(Oc3cccc(C(F)(F)F)c3)c(OC)cc(NC(C)CCCN)c2n1` (centres undefined) [TAFENOQUINE], the inhibition in vivo at 1 mg/kg [6] is reported as 39%, the inhibition in vivo at 10 mg/kg [7] is reported as 96% and the Activity [8] is reported as “Toxicity death”. For the same compound, the Activity [1] was 5, the Activity [2] was 5 and the Activity [4] was 5. The Activity [9] was 3.

`CCOC(=O)/N=C(\NC1=NC(=O)C(=O)N1C(C)C)Nc1ccc(Cl)c(Cl)c1` showed an inhibition in vivo at 1 mg/kg [6] of 63%, an inhibition in vivo at 10 mg/kg [7] of 99% and an Activity [2] of 2. The Activity [4] was 4, the Activity [10] was 5 and the Activity [9] was 0.

`CC(C)N1C(=O)C(=O)N=C1N/C(=N\C(=O)OCCOCc1ccccc1)Nc1ccc(Cl)c(Cl)c1` gave an Activity [2] of 0, an Activity [4] of 0 and an Activity [10] of 1.

In the case of `C=CCCOC(=O)N/C(=N/C(C)C)NC1=NC(=O)C(=O)N1c1ccc(Cl)c(Cl)c1`, the Activity [11] is reported as “Not Dosed”.

Work on `CC(C)N1C(=O)C(=O)N=C1NC(=N)Nc1ccc(Cl)c(Cl)c1` yielded an IC50 [12] of 2.97 µg/mL (≈ 8.68 µM), an IC50 [13] of 2.66 µg/mL (≈ 7.79 µM) and an IC50 [14] of 2.59 µg/mL (≈ 7.57 µM). The IC90 [15] was 12.1 µg/mL (≈ 35.3 µM), the IC90 [16] was 10.9 µg/mL (≈ 31.8 µM) and the IC90 [17] was 11.3 µg/mL (≈ 33.2 µM). The inhibition in vivo at 1 mg/kg [6] was 50% and the inhibition in vivo at 10 mg/kg [7] was 91%.

`CC(C)COC(=O)N/C(=N/C(C)C)NC1=NC(=O)C(=O)N1c1ccc(Cl)c(Cl)c1` showed an Activity [1] of 5, an Activity [2] of 5 and an Activity [4] of 5. It also gave an Activity [10] of 5, an Activity [9] of 1 and an Activity [18] of 0.

With `CC(C)/N=C(/NC(=O)OCc1ccccc1)NC1=NC(=O)C(=O)N1c1ccc(Cl)c(Cl)c1` the inhibition in vivo at 1 mg/kg [6] was 6.7%, the inhibition in vivo at 10 mg/kg [7] was 87% and the Activity [1] was 3. The Activity [2] was 2, the Activity [4] was 2 and the Activity [10] was 3. The Activity [9] was 0.

In the case of `CC(C)N1C(=O)C(=O)N=C1N/C(=N\C(=O)OCc1ccccc1)Nc1ccc(Cl)c(Cl)c1`, the inhibition in vivo at 1 mg/kg [6] is reported as 25%, the inhibition in vivo at 10 mg/kg [7] is reported as 43% and the Activity [4] is reported as 0. The Activity [10] was 0.

`CC(C)/N=C(/NC(=O)OC(C)(C)C)NC1=NC(=O)C(=O)N1c1ccc(Cl)c(Cl)c1` was tested, and the Activity [1] was 4, the Activity [4] was 4 and the Activity [10] was 5. It also gave an Activity [9] of 2 and an Activity [19] of 2.

With `Cc1oc(=O)oc1COC(=O)/N=C(\NC1=NC(=O)C(=O)N1C(C)C)Nc1ccc(Cl)c(Cl)c1` the Activity [2] was 2, the Activity [4] was 2 and the Activity [10] was 3. For the same compound, the Activity [9] was 0.

In the case of `CCCCCCOC(=O)/N=C(\NC1=NC(=O)C(=O)N1C(C)C)Nc1ccc(Cl)c(Cl)c1`, the Activity [2] is reported as 0, the Activity [4] is reported as 2 and the Activity [10] is reported as 1.

In the case of `CCO[C@H]1O[C@@H]2O[C@@]3(C)CC[C@H]4[C@H](C)CC[C@@H]([C@H]1C)[C@@]24OO3` [ARTEMOTIL], the Activity [2] is reported as 0, the Activity [4] is reported as 0 and the Activity [10] is reported as 0.

Work on `CCN(CC)CCCC(C)Nc1ccnc2cc(Cl)ccc12` (centres undefined) [CHLOROQUINE] yielded an IC90 [15] of 0.00533 µg/mL (≈ 0.0167 µM), an IC90 [16] of 0.199 µg/mL (≈ 0.621 µM) and an IC90 [17] of 0.0552 µg/mL (≈ 0.173 µM).

With `O[C@@H](c1cc(C(F)(F)F)nc2c(C(F)(F)F)cccc12)C1CCCCN1` (some centres undefined) [MEFLOQUINE] the IC90 [15] was 0.0134 µg/mL (≈ 0.0355 µM), the IC90 [16] was 0.00401 µg/mL (≈ 0.0106 µM) and the IC90 [17] was 0.044 µg/mL (≈ 0.116 µM).

`CC(C)N1C(=O)C(=O)N=C1N/C(=N\C(=O)OC(C)(C)C)Nc1ccc(Cl)c(Cl)c1` gave an inhibition in vivo at 1 mg/kg [6] of 69%, an inhibition in vivo at 10 mg/kg [7] of 99% and an Activity [2] of 0. It also gave an Activity [4] of 2 and an Activity [10] of 5.

In the case of `CCOC(=O)N/C(=N/C(C)C)NC1=NC(=O)C(=O)N1c1ccc(Cl)c(Cl)c1`, the inhibition in vivo at 1 mg/kg [6] is reported as 10%, the inhibition in vivo at 10 mg/kg [7] is reported as 98% and the Activity [1] is reported as 1. The Activity [2] was 1, the Activity [3] was 3 and the Activity [4] was 5. For the same compound, the Activity [5] was 5.

`CC(C)COC(=O)/N=C(\NC1=NC(=O)C(=O)N1C(C)C)Nc1ccc(Cl)c(Cl)c1` gave an Activity [2] of 0, an Activity [4] of 2 and an Activity [10] of 5.

For `C=CCCOC(=O)/N=C(\NC1=NC(=O)C(=O)N1C(C)C)Nc1ccc(Cl)c(Cl)c1`, the Activity [2] was 0, the Activity [4] was 0 and the Activity [10] was 1.

`COc1cc(NC(C)CCCN)c2ncccc2c1` (centres undefined) [PRIMAQUINE] was tested, and the Activity [2] was 0, the Activity [4] was 2 and the Activity [10] was 5.
